Experiment: Study HDP-CDV-201: safety and tolerability (adverse events, laboratory abnormalities, discontinuations)
Format: in vivo, human (adult allogeneic HSCT recipients)
Conditions: 40 mg QW
Experimental: Clinical Studies of HDP-CDV were performed and described in detail in the following Examples. For example, HDP-CDV-201 is a placebo-controlled, dose-escalating trial in HSCT CMV (R+) recipients, evaluating the ability of HDP-CDV to prevent or control CMV infection was carried out. Five cohorts were established in which participants or subjects received either placebo or the HDP-CDV orally, in doses ranging from 40 mg weekly (QW) to 200 mg twice weekly (BIW). Subjects who were post-HSCT were enrolled at the time of engraftment and randomized to HDP-CDV or placebo (3 to 1 ratio) and received blinded therapy until approximately 100 day post-transplantation. HDP-CDV doses were 40 mg QW, 100 mg QW, 200 mg QW, 200 mg BIW and 100 mg BIW. Escalation to the next dose was decided by the data monitoring committee after review of the safety data from the previous Cohort. Subjects who developed CMV disease or CMV infection requiring pre-emptive therapy with local standard of care were discontinued from blinded therapy and followed for 4 weeks. Subjects who completed treatment with blinded therapy were followed for 8 weeks post-therapy.
Data from Study HDP-CDV-201 also provided characterization of the safety and tolerability profile of HDP-CDV when administered for the prevention or control of CMV infection in high risk (R^+) post-HSCT adult subjects.
The Safety population (SAFETY) included all randomized subjects who took at least one dose of study treatment. This population was used to summarize safety outcomes based on the treatment actually received, in cases where a subject was treated contrary to the randomization schedule.
The safety and tolerability profile of HDP-CDV, including subject demographics and Baseline characteristics; the AE profile; and laboratory abnormalities of interest were analyzed in the cohorts followed in this investigation.
Subjects completing the treatment period received a full course of study medication; those completing the entire study attended visits through 8 weeks of follow up. Subjects who discontinued treatment may have done so for protocol specified reasons (e.g. development of clinically significant CMV infection requiring preemptive treatment with excluded anti-CMV medications) or for other reasons (e.g., withdrawal, adverse events, loss to follow-up). The disposition of subjects in Study HDP-CDV-201 during the double-blind, placebo-controlled treatment period (through Week 11) is listed by dosing Cohort in TABLE 23.
Adverse events were examined by severity to ensure that all safety signals were identified in this study population. Because of the frequency of events in HSCT recipients, particular attention was given to evaluation of Grade 3 […], 4 (severe), and 5 (fatal) adverse events.
Only those preferred terms for which at least one Grade 3 or higher event was experienced in any treatment group are listed. Cytomegalovirus-related AEs are excluded from this analysis.
HDP-CDV is a lipid conjugate of CDV. Because CDV is known to have adverse effects on renal function and bone marrow, decreased GFR and persistent neutropenia were identified as AEs of special interest. Key renal and hematological (TABLE 30) laboratory parameters were measured and listed below by Study HDP-CDV-201 treatment groups. TABLE 30 includes abnormal levels of serum creatinine, neutrophils, platelets, WBCs, and hemoglobin and includes data at Screening and during the treatment period.
A common metric for unit based dosing of medications is by weight (mg/kg). When the distribution of weights was examined for all subjects participating in the study, the median was 78 kg and the lower 25th percentile weight was approximately 65 kg, which translates to a cut-off of ˜3 mg/kg for a 200 mg total weekly dose. Based upon this approach, a cut-off of 3 mg/kg was used to assess the frequency of diarrhea and associated GI AEs reported for the subjects in Cohorts 3 or 4a (TABLE 40).

For `CCCCCCCCCCCCCCCCOCCCOP(=O)(O)COC(CO)Cn1ccc(N)nc1=O` (stereo not drawn) [HDP-CDV], the “TEAE ALT increased, Frequency” value was 2 (8.0%), the “TEAE ALT increased, Grade 2” value was 1 (4.0%) and the “TEAE ALT increased, Grade 3” value was 1 (4.0%). For the same compound, the “TEAE ALT increased, Grade 4” value was 0, the “TEAE ALT increased, Grade 5” value was 0 and the “TEAE AML, Recurrent, Frequency” value was 3 (12.0%). For the same compound, the “TEAE AML, Recurrent, Grade 2” value was 0, the “TEAE AML, Recurrent, Grade 3” value was 0 and the “TEAE AML, Recurrent, Grade 4” value was 1 (4.0%). The “TEAE AML, Recurrent, Grade 5” value was 0, the “TEAE AST increased, Frequency” value was 1 (4.0%) and the “TEAE AST increased, Grade 2” value was 0. The “TEAE AST increased, Grade 3” value was 1 (4.0%), the “TEAE AST increased, Grade 4” value was 0 and the “TEAE AST increased, Grade 5” value was 0. For the same compound, the “TEAE Abdominal pain, Frequency” value was 4 (16.0%), the “TEAE Abdominal pain, Grade 2” value was 0 and the “TEAE Abdominal pain, Grade 3” value was 1 (4.0%). For the same compound, the “TEAE Abdominal pain, Grade 4” value was 0, the “TEAE Abdominal pain, Grade 5” value was 0 and the “TEAE Acute GVHD, Frequency” value was 6 (24.0%). For the same compound, the “TEAE Acute GVHD, Grade 2” value was 2 (8.0%), the “TEAE Acute GVHD, Grade 3” value was 1 (4.0%) and the “TEAE Arthralgias, Frequency” value was 0. The “TEAE Arthralgias, Grade 2” value was 0, the “TEAE Arthralgias, Grade 3” value was 0 and the “TEAE Arthralgias, Grade 4” value was 0. For the same compound, the “TEAE Arthralgias, Grade 5” value was 0, the “TEAE Back Pain, Frequency” value was 0 and the “TEAE Back Pain, Grade 2” value was 0. The “TEAE Back Pain, Grade 3” value was 0, the “TEAE Back Pain, Grade 4” value was 0 and the “TEAE Back Pain, Grade 5” value was 0. For the same compound, the “TEAE Decreased appetite, Frequency” value was 4 (16.0%), the “TEAE Decreased appetite, Grade 2” value was 1 (4.0%) and the “TEAE Decreased appetite, Grade 3” value was 1 (4.0%). The “TEAE Decreased appetite, Grade 4” value was 0, the “TEAE Decreased appetite, Grade 5” value was 0 and the “TEAE Diarrhea, Frequency” value was 3 (12.0%). The “TEAE Diarrhea, Grade 2” value was 2 (8.0%), the “TEAE Diarrhea, Grade 3” value was 0 and the “TEAE Diarrhea, Grade 4” value was 0. For the same compound, the “TEAE Diarrhea, Grade 5” value was 0, the “TEAE Fatigue, Frequency” value was 1 (4.0%) and the “TEAE Fatigue, Grade 2” value was 0. For the same compound, the “TEAE Fatigue, Grade 3” value was 0, the “TEAE Fatigue, Grade 4” value was 0 and the “TEAE Fatigue, Grade 5” value was 0. For the same compound, the “TEAE GGT Increased, Frequency” value was 0, the “TEAE GGT Increased, Grade 2” value was 0 and the “TEAE GGT Increased, Grade 3” value was 0. For the same compound, the “TEAE GGT Increased, Grade 4” value was 0, the “TEAE GGT Increased, Grade 5” value was 0 and the “TEAE Generalized oedema, Frequency” value was 1 (4.0%). The “TEAE Generalized oedema, Grade 2” value was 1 (4.0%), the “TEAE Generalized oedema, Grade 3” value was 0 and the “TEAE Generalized oedema, Grade 4” value was 0. The “TEAE Generalized oedema, Grade 5” value was 0, the “TEAE Hyperbilirubinaemia, Frequency” value was 1 (4.0%) and the “TEAE Hyperbilirubinaemia, Grade 2” value was 0. For the same compound, the “TEAE Hyperbilirubinaemia, Grade 3” value was 0, the “TEAE Hyperbilirubinaemia, Grade 4” value was 1 (4.0%) and the “TEAE Hyperbilirubinaemia, Grade 5” value was 0. The “TEAE Hyperglycaemia, Frequency” value was 1 (4.0%), the “TEAE Hyperglycaemia, Grade 2” value was 1 (4.0%) and the “TEAE Hyperglycaemia, Grade 3” value was 0. The “TEAE Hyperglycaemia, Grade 4” value was 0, the “TEAE Hyperglycaemia, Grade 5” value was 0 and the “TEAE Hyperkalemia, Frequency” value was 1 (4.0%). The “TEAE Hyperkalemia, Grade 2” value was 0, the “TEAE Hyperkalemia, Grade 3” value was 0 and the “TEAE Hyperkalemia, Grade 4” value was 0. For the same compound, the “TEAE Hyperkalemia, Grade 5” value was 0, the “TEAE Hypocalcaemia, Frequency” value was 1 (4.0%) and the “TEAE Hypocalcaemia, Grade 2” value was 1 (4.0%). The “TEAE Hypocalcaemia, Grade 3” value was 0, the “TEAE Hypocalcaemia, Grade 4” value was 0 and the “TEAE Hypocalcaemia, Grade 5” value was 0. For the same compound, the “TEAE Hypokalaemia, Frequency” value was 4 (16.0%), the “TEAE Hypokalaemia, Grade 2” value was 0 and the “TEAE Hypokalaemia, Grade 3” value was 2 (8.0%). The “TEAE Hypokalaemia, Grade 4” value was 0, the “TEAE Hypokalaemia, Grade 5” value was 0 and the “TEAE Hyponatraemia, Frequency” value was 3 (12.0%). The “TEAE Hyponatraemia, Grade 2” value was 1 (4.0%), the “TEAE Hyponatraemia, Grade 3” value was 1 (4.0%) and the “TEAE Hyponatraemia, Grade 4” value was 0. The “TEAE Hyponatraemia, Grade 5” value was 0, the “TEAE LFT Abnormal, Frequency” value was 0 and the “TEAE LFT Abnormal, Grade 2” value was 0. For the same compound, the “TEAE LFT Abnormal, Grade 3” value was 0, the “TEAE LFT Abnormal, Grade 4” value was 0 and the “TEAE LFT Abnormal, Grade 5” value was 0. The “TEAE Leukocytosis, Frequency” value was 1 (4.0%), the “TEAE Leukocytosis, Grade 2” value was 0 and the “TEAE Leukocytosis, Grade 3” value was 0. For the same compound, the “TEAE Leukocytosis, Grade 4” value was 0, the “TEAE Leukocytosis, Grade 5” value was 0 and the “TEAE Nausea, Frequency” value was 6 (24.0%). For the same compound, the “TEAE Nausea, Grade 2” value was 2 (8.0%), the “TEAE Nausea, Grade 3” value was 1 (4.0%) and the “TEAE Nausea, Grade 4” value was 0. For the same compound, the “TEAE Nausea, Grade 5” value was 0, the “TEAE Neutropenia, Frequency” value was 2 (8.0%) and the “TEAE Neutropenia, Grade 2” value was 0. For the same compound, the “TEAE Neutropenia, Grade 3” value was 2 (8.0%), the “TEAE Neutropenia, Grade 4” value was 0 and the “TEAE Neutropenia, Grade 5” value was 0. For the same compound, the “TEAE Pneumonia, Frequency” value was 1 (4.0%), the “TEAE Pneumonia, Grade 2” value was 0 and the “TEAE Pneumonia, Grade 3” value was 0.

Reference: patent US20140303092A1 (CHIMERIX, INC., priority 2011, published 2014)
